In patent EP0510260A2, “6'-C-alkyl-3-deazaneplanocin A derivative and its preparation process and use” (ASAHI KASEI KOGYO KABUSHIKI KAISHA, priority 1991, dated 1992):

Legend:
virus = experiment: Antiviral activity: cytopathic effect (CPE) inhibition in virus-inoculated Vero cells; assay type: cell-based; settings: MIC, virus at 100 times TCID50, cultured 36 hours at 37°C, CPE observed microscopically
Method: By partly modifying the testing method reported in Antimicrobial Agents and Chemotherapy, 24(3), 353-361 (1983), antiviral activity was analyzed in the following manner. 200 µℓ of Eagle's minimum essential medium (with 10% fetal calf serum), in which Vero cells (product of Flow General Inc., marketed by Dainippon Pharmaceutical Co., Ltd., available from National Institute of Health) were suspended at the concentration of 3 x 10⁵ cells/mℓ, were cultured in a […] flat bottom plate. Subsequent to dense monolayer culture, the medium was removed and 90 µℓ of Eagle's minimum essential medium (with 3% fetal calf serum) containing a test compound were added. The tissue culture infections dosis 50% (TCID₅₀) had been determined in advance without addition of any drug. The above-prepared culture plate was inoculated with 10 µℓ of a virus solution whose concentration was 100 times higher than TCID₅₀ determined in advance. The cells were cultured for 36 hours at 37°C under 5% CO₂. The cytopathic effect (CPE) was microscopically observed, whereby the minimum virus growth inhibitory concentration (MIC) was determined.

Vero cells = experiment: Measurement of cytotoxicity by the MTT method; assay type: cell-based; settings: cultured 72 hours, ID50 (growth of cells inhibited to 50%)
Method: Added to 100 µℓ of Eagle's minimum essential medium were 100 µℓ of Eagle's minimum essential medium (with 10% fetal calf serum), in which Vero cells were suspended at the concentration of 5 x 10⁴ cells/mℓ as well as a test compound. The resultant mixture was cultured for 72 hours in a […] flat bottom plate. The cytotoxicity of the test compound was then measured by the MTT measuring method reported in J. Immunol. Methods, 65, 55-63 (1983). The cytotoxicity is indicated in terms of the concentration (ID₅₀) which inhibited the growth of cells to 50%.

SMILES | Minimum virus growth inhibitory concen. (virus) [µg/mL] | 50% cell growth inhibitory concentration (ID50) (Vero cells) [µg/mL]
Nc1nccc2c1ncn2[C@@H]1C=C(CO)[C@@H](O)[C@H]1O [3-Deazaneplanosin A, 3-deazaneplanocin A] | 0.24 | –
Nc1ncnc2c1ncn2[C@@H]1C=C(CO)[C@@H](O)[C@H]1O [Neplanocin A] | 0.24 | –
CC(O)C1=C[C@@H](n2cnc3c(N)nccc32)[C@H](O)[C@@H]1O (single isomer, unassigned) [6'-c-Methyl-3-deazaneplanocin A, 6'-C-Methyl-3-deazaneplanocin A] | 1.0 | 12.4
